What follows are molecules tested against full-length human ATR protein (Homo sapiens (Human), UniProt Q13535) (assay: Binding assay ATR (TR-FRET tracer displacement)). Conditions: tracer A, TR-FRET; read-out: ATR binding (tracer A) IC50.
Outline: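 Full-length human GST-ATR co-purified with ATRIP, pre-complexed 30 min at 22 °C with anti-GST-Tb antibody, then pre-bound with compound 10 min. Tracer A or B added (2 µl of 100 nM solution), 30 min at 22 °C.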

full-length human ATR protein, sequence (Q13535 other isoform, or with tags, fused parts or gaps): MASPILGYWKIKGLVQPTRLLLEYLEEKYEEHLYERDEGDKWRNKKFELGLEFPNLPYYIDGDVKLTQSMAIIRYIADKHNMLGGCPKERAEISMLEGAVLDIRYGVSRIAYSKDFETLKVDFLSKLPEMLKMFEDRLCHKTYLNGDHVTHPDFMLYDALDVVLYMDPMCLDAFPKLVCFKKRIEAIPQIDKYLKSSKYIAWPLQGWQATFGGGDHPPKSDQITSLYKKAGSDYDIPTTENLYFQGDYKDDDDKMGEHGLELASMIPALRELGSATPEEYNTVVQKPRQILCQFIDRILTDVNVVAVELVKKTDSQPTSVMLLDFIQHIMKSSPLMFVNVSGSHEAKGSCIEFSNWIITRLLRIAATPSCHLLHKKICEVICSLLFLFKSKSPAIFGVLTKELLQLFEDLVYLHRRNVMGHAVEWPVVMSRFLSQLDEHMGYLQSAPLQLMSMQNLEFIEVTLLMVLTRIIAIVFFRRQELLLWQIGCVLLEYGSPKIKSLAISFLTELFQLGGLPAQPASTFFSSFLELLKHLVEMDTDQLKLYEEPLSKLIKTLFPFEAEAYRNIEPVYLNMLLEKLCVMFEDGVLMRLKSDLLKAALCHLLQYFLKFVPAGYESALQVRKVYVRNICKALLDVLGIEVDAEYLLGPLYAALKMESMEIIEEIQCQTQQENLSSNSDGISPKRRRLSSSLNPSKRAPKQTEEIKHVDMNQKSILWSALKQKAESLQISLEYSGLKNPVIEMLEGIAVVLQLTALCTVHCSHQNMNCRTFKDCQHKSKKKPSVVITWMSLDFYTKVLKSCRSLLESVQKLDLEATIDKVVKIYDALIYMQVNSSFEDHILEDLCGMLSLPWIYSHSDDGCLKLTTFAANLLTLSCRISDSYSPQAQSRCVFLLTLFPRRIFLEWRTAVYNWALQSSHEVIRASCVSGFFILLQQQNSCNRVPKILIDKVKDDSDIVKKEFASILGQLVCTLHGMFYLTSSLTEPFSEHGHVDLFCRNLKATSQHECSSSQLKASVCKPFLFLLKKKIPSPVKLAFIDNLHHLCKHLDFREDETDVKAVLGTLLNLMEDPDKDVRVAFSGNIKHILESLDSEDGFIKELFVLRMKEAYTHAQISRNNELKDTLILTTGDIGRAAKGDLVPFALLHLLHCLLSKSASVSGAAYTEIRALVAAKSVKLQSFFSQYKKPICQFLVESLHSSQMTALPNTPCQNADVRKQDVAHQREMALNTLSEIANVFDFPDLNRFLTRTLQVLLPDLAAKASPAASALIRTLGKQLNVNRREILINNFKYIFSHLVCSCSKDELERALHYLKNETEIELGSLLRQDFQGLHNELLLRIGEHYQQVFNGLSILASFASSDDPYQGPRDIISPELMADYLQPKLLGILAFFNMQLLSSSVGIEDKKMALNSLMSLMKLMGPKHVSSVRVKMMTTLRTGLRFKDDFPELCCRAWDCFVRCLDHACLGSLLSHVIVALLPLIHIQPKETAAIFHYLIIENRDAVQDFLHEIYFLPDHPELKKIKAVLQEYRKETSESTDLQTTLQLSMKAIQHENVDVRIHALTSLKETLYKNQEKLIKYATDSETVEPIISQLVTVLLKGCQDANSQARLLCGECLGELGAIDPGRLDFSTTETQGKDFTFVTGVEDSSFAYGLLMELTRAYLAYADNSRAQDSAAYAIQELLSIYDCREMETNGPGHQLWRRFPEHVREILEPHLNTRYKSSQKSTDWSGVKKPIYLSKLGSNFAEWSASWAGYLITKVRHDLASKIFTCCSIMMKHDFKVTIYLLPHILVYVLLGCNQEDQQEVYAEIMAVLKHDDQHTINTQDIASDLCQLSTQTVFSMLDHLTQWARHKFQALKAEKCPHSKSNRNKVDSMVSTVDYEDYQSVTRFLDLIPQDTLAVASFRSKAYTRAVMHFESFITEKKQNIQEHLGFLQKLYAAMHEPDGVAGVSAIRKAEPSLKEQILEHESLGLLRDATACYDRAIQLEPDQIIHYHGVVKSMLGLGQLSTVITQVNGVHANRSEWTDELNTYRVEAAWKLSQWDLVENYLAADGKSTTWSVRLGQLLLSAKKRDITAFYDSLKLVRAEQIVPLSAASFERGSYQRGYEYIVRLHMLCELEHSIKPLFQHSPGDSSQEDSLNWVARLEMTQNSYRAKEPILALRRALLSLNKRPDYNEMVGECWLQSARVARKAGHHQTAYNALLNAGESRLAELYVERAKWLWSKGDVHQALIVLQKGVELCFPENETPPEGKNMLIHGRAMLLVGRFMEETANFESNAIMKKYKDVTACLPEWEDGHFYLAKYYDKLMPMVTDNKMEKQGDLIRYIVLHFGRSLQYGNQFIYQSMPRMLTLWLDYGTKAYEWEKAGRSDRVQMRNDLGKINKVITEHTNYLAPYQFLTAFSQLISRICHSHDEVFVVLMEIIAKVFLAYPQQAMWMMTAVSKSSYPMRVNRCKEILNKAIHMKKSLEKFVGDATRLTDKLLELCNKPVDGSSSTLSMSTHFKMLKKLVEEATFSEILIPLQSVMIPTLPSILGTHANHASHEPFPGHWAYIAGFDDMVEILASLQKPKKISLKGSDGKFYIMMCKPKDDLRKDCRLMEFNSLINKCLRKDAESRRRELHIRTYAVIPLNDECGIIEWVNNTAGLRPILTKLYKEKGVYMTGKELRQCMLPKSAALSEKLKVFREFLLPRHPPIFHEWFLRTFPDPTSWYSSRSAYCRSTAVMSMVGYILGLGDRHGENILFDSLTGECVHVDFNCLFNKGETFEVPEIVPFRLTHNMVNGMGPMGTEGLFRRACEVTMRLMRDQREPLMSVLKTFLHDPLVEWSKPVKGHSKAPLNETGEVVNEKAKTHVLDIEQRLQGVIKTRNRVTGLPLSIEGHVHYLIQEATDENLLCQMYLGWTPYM
full-length human ATR protein, sequence (Q8WXE1 other isoform, or with tags, fused parts or gaps partner): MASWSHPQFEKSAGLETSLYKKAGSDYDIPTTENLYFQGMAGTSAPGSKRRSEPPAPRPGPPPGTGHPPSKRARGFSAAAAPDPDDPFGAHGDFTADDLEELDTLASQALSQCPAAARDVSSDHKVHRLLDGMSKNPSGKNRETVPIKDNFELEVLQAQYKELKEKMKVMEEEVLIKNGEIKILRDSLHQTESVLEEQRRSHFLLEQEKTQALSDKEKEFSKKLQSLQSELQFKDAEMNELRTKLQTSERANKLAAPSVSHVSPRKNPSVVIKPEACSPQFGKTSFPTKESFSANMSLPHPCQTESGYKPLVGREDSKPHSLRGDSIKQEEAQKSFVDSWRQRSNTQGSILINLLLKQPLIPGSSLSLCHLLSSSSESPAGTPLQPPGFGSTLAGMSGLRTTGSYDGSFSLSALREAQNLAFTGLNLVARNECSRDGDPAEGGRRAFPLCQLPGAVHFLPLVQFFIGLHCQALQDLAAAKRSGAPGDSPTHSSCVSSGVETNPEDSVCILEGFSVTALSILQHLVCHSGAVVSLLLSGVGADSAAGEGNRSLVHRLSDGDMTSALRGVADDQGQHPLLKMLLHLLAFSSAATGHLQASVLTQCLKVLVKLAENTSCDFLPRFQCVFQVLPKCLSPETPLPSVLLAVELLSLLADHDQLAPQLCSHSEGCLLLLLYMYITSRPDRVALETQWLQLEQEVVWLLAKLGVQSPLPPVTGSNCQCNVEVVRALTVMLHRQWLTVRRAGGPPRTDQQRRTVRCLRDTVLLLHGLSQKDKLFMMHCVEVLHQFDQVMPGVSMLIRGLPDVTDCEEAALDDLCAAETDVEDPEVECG

Compound	IC50 [µM]
C[C@@H]1COCCN1c1cc(-c2cnc(F)cc2F)c2ccnc(-c3ccn[nH]3)c2n1 [Example 247, 4-(4,6-difluoropyridin-3-yl)-2-[(3R)-3-methylmorpholin-4-yl]-8-(1H-pyrazol-5-yl)-1,7-naphthyridine]	0.0216
Fc1cnccc1-c1cc(N2CCOCC2)nc2c(-c3ccn[nH]3)nccc12 [Example 365, 4-(3-fluoropyridin-4-yl)-2-(morpholin-4-yl)-8-(1H-pyrazol-5-yl)-1,7-naphthyridine]	0.103
COc1cc(-c2cc(N3CCOCC3)nc3c(-c4ccn[nH]4)nccc23)ccn1 [Example 351, 4-(2-methoxypyridin-4-yl)-2-(morpholin-4-yl)-8-(1H-pyrazol-5-yl)-1,7-naphthyridine]	0.154
COc1ccncc1-c1cc(N2CCOCC2)nc2c(-c3ccn[nH]3)nccc12 [Example 375, 4-(4-methoxypyridin-3-yl)-2-(morpholin-4-yl)-8-(1H-pyrazol-5-yl)-1,7-naphthyridine]	0.894
c1cc(-c2nccc3c(OCC4CCCO4)cc(N4CCOCC4)nc23)[nH]n1 (stereo not drawn) [Example 46, 2-(morpholin-4-yl)-8-(1H-pyrazol-5-yl)-4-(tetrahydrofuran-2-ylmethoxy)-1,7-naphthyridine]	0.262
CCOc1ccc(-c2cc(N3CCOCC3)nc3c(-c4ccn[nH]4)nccc23)cn1 [Example 382, 4-(6-ethoxypyridin-3-yl)-2-(morpholin-4-yl)-8-(1H-pyrazol-5-yl)-1,7-naphthyridine]	0.199
C[C@@H]1COCCN1c1cc(-c2cc(F)ccc2N)c2ccnc(-c3ccn[nH]3)c2n1 [Example 75, 4-fluoro-2-[2-[(3R)-3-methylmorpholin-4-yl]-8-(1H-pyrazol-5-yl)-1,7-naphthyridin-4-yl]aniline]	0.00697
C[C@@H]1COCCN1c1cc(-c2cn[nH]c2)c2ccnc(-c3ccn[nH]3)c2n1 [Example 269, 2-[(3R)-3-methylmorpholin-4-yl]-4-(1H-pyrazol-4-yl)-8-(1H-pyrazol-5-yl)-1,7-naphthyridine]	0.0127
CN(C)C(=O)c1ccccc1-c1cc(N2CCOCC2)nc2c(-c3ccn[nH]3)nccc12 [Example 290, N,N-dimethyl-2-[2-(morpholin-4-yl)-8-(1H-pyrazol-5-yl)-1,7-naphthyridin-4-yl]benzamide]	1.19
Cc1ccc(-c2cc(N3CCOC[C@H]3C)nc3c(-c4ccn[nH]4)nccc23)s1 [Example 100, 2-[(3R)-3-methylmorpholin-4-yl]-4-(5-methyl-2-thienyl)-8-(1H-pyrazol-5-yl)-1,7-naphthyridine]	0.0165
Cc1cc(-c2cc(N3CCOC[C@H]3C)nc3c(-c4ccn[nH]4)nccc23)c(C)n1C [Example 264, 2-[(3R)-3-methylmorpholin-4-yl]-8-(1H-pyrazol-5-yl)-4-(1,2,5-trimethyl-1H-pyrrol-3-yl)-1,7-naphthyridine]	0.0255
CCCN(C)c1cc(N2CCOCC2)nc2c(-c3ccn[nH]3)nccc12 [Example 412, N-methyl-2-(morpholin-4-yl)-N-propyl-8-(1H-pyrazol-5-yl)-1,7-naphthyridin-4-amine]	0.162
C[C@@H]1COCCN1c1cc(-c2ccccc2F)c2ccnc(-c3ccn[nH]3)c2n1 [Example 77, 4-(2-fluorophenyl)-2-[(3R)-3-methylmorpholin-4-yl]-8-(1H-pyrazol-5-yl)-1,7-naphthyridine]	0.00892
C[C@@H]1COCCN1c1cc(N=S2(=O)CCCC2)c2ccnc(-c3ccn[nH]3)c2n1 [Example 137, N-{2-[(3R)-3-methylmorpholin-44-yl]-8-(1H-pyrazol-5-yl)-1,7-naphthyridin-4-yl}tetrahydro-1H-1λ^4-thiophen-1-imine 1-oxide]	0.026
c1cc(-c2cc(N3CCOCC3)nc3c(-c4ccn[nH]4)nccc23)c2cccnc2c1 [Example 349, 2-(morpholin-4-yl)-8-(1H-pyrazol-5-yl)-4-(quinolin-5-yl)-1,7-naphthyridine]	0.119
FC(F)(F)c1cccc(-c2cc(N3CCOCC3)nc3c(-c4ccn[nH]4)nccc23)c1 [Example 303, 2-(morpholin-4-yl)-8-(1H-pyrazol-5-yl)-4-[3-(trifluoromethyl)phenyl]-1,7-naphthyridine]	0.0861
c1c[nH]c(-c2cc(N3CCOCC3)nc3c(-c4ccn[nH]4)nccc23)c1 [Example 211, 2-(morpholin-4-yl)-8-(1H-pyrazol-5-yl)-4-(1H-pyrrol-2-yl)-1,7-naphthyridine]	0.547
CN(c1cc(N2CCOCC2)nc2c(-c3ccn[nH]3)nccc12)C1CC1 [Example 435, N-cyclopropyl-N-methyl-2-(morpholin-4-yl)-8-(1H-pyrazol-5-yl)-1,7-naphthyridin-4-amine]	0.0651
C[C@@H]1COCCN1c1cc(C#N)c2ccnc(-c3ccn[nH]3)c2n1 [Example 35, 2-((R)-3-methylmorpholin-4-yl)-8-(-2H-pyrazol-3-yl]-[1,7]naphthyridine-4-carbonitrile]	0.122

Compound	IC50 [µM]
C[C@@H]1COCCN1c1cc(C2=CCN(C)CC2)c2ccnc(-c3ccn[nH]3)c2n1 [Example 243, 2-[(3R)-3-methylmorpholin-4-yl]-4-(1-methyl-1,2,3,6-tetrahydropyridin-4-yl)-8-(1H-pyrazol-5-yl)-1,7-naphthyridine]	0.0365
c1ccc(-c2ccccc2-c2cc(N3CCOCC3)nc3c(-c4ccn[nH]4)nccc23)cc1 [Example 345, 4-(biphenyl-2-yl)-2-(morpholin-4-yl)-8-(1H-pyrazol-5-yl)-1,7-naphthyridine]	0.0556
C[C@@H]1COCCN1c1cc(N2CCN(C)C(=O)C2)c2ccnc(-c3ccn[nH]3)c2n1 [Example 157, 1-methyl-4-{2-[(3R)-3-methylmorpholin-4-yl]-8-(1H-pyrazol-5-yl)-1,7-naphthyridin-4-yl}piperazin-2-one]	0.0918
C[C@@H]1COCCN1c1cc(N2CCOCC2)nc2c(-c3ccn[nH]3)nccc12 [Example 148, 4-[(3R)-3-methylmorpholin-4-yl]-2-(morpholin-4-yl)-8-(1H-pyrazol-5-yl)-1,7-naphthyridine]	0.0479
C[C@@H]1COCCN1c1cc(-c2cccn2C)c2ccnc(-c3ccn[nH]3)c2n1 [Example 91, 2-[(3R)-3-methylmorpholin-4-yl]-4-(1-methyl-1H-pyrrol-2-yl)-8-(1H-pyrazol-5-yl)-1,7-naphthyridine]	0.01
CCn1cnc(-c2cc(N3CCOC[C@H]3C)nc3c(-c4ccn[nH]4)nccc23)c1 [Example 153, 4-(1-ethyl-1H-imidazol-4-yl)-2-[(3R)-3-methylmorpholin-4-yl]-8-(1H-pyrazol-5-yl)-1,7-naphthyridine]	0.0547
Cc1cccnc1-c1cc(N2CCOC[C@H]2C)nc2c(-c3ccn[nH]3)nccc12 [Example 165, 2-[(3R)-3-methylmorpholin-4-yl]-4-(3-methylpyridin-2-yl)-8-(1H-pyrazol-5-yl)-1,7-naphthyridine]	0.224
Nc1ncccc1-c1cc(N2CCOCC2)nc2c(-c3ccn[nH]3)nccc12 [Example 402, 3-[2-(morpholin-4-yl)-8-(1H-pyrazol-5-yl)-1,7-naphthyridin-4-yl]pyridin-2-amine]	0.299
C[C@@H]1COCCN1c1cc(-c2cccnc2N)c2ccnc(-c3ccn[nH]3)c2n1 [Example 155, 3-{2-[(3R)-3-methylmorpholin-4-yl]-8-(1H-pyrazol-5-yl)-1,7-naphthyridin-4-yl}pyridin-2-amine]	0.0633
C[C@@H]1COCCN1c1cc(-c2ccn(C)c2)c2ccnc(-c3ccn[nH]3)c2n1 [Example 262, 2-[(3R)-3-methylmorpholin-4-yl]-4-(1-methyl-1H-pyrrol-3-yl)-8-(1H-pyrazol-5-yl)-1,7-naphthyridine]	0.0422
Cc1nn(C)cc1-c1cc(N2CCOCC2)nc2c(-c3ccn[nH]3)nccc12 [Example 271, 4-(1,3-dimethyl-1H-pyrazol-4-yl)-2-(morpholin-4-yl)-8-(1H-pyrazol-5-yl)-1,7-naphthyridine]	0.0416
COCc1noc(C)c1-c1cc(N2CCOC[C@H]2C)nc2c(-c3ccn[nH]3)nccc12 [Example 135, 4-[3-(methoxymethyl)-5-methyl-1,2-oxazol-4-yl]-2-[(3R)-3-methylmorpholin-4-yl]-8-(1H-pyrazol-5-yl)-1,7-naphthyridine]	0.0329
COc1cnccc1-c1cc(N2CCOC[C@H]2C)nc2c(-c3ccn[nH]3)nccc12 [Example 227, 4-(3-methoxypyridin-4-yl)-2-[(3R)-3-methylmorpholin-4-yl]-8-(1H-pyrazol-5-yl)-1,7-naphthyridine]	0.0755
COc1ncccc1-c1cc(N2CCOC[C@H]2C)nc2c(-c3ccn[nH]3)nccc12 [Example 220, 4-(2-methoxypyridin-3-yl)-2-[(3R)-3-methylmorpholin-4-yl]-8-(1H-pyrazol-5-yl)-1,7-naphthyridine]	0.0324
CN(CC(C)(C)C)c1cc(N2CCOCC2)nc2c(-c3ccn[nH]3)nccc12 [Example 436, N-(2,2-dimethylpropyl)-N-methyl-2-(morpholin-4-yl)-8-(1H-pyrazol-5-yl)-1,7-naphthyridin-4-amine]	0.024
c1cncc(-c2cc(N3CCOCC3)nc3c(-c4ccn[nH]4)nccc23)c1 [Example 350, 2-(morpholin-4-yl)-8-(1H-pyrazol-5-yl)-4-(pyridin-3-yl)-1,7-naphthyridine]	0.162
CS(=O)(=O)c1nc(-c2cc(N3CCOCC3)nc3c(-c4ccn[nH]4)nccc23)cs1 [Example 21, 4-[2-(methylsulfonyl)-1,3-thiazol-4-yl]-2-(morpholin-4-yl)-8-(1H-pyrazol-5-yl)-1,7-naphthyridine]	0.19
c1cc(-c2cc(N3CCOCC3)nc3c(-c4ccn[nH]4)nccc23)c2cc[nH]c2c1 [Example 294, 4-(1H-indo1-4-yl)-2-(morpholin-4-yl)-8-(1H-pyrazol-5-yl)-1,7-naphthyridine]	0.0372
Cc1cccc(-c2cc(N3CCOCC3)nc3c(-c4ccn[nH]4)nccc23)c1 [Example 308, 4-(3-methylphenyl)-2-(morpholin-4-yl)-8-(1H-pyrazol-5-yl)-1,7-naphthyridine]	0.131

Same assay, conditions: tracer B, TR-FRET; read-out: ATR binding (tracer B) IC50

Compound	IC50 [µM]
C[C@@H]1COCCN1c1cc(C#N)c2ccnc(-c3ccn[nH]3)c2n1 [Example 35, 2-((R)-3-methylmorpholin-4-yl)-8-(-2H-pyrazol-3-yl]-[1,7]naphthyridine-4-carbonitrile]	0.0755

— patent US9549932B2, “2-(morpholin-4-yl)-1,7-naphthyridines” (BAYER PHARMA AKTIENGESELLSCHAFT, priority 2014, dated 2017)
